Test results as given in patent US20260325481A1, “THERAPY SELECTION AND TREATMENT OF NEURODEGENERATIVE DISORDERS” (Anavex Life Sciences Corp., priority 2022, published 2026).
Read-outs that look alike come from different tables or passages of the source.

Assays:
[1] = test system: Cluster 2 (962 genes); assay: RNAseq whole blood transcriptomics, WGCNA Cluster 2 and pathway analysis; set-up: species or system human; settings: for Number of pathways significantly overrepresented in second cluster: among its 317 pathways
Experimental: (§1) In order to gain insights into ANAVEX 2-73 response pathways, during the Phase 2 study, patients' DNA and RNA sequencing were analyzed. Transcriptomic samples of 65 patients enrolled in either High Dose or Mid Dose arms were collected at baseline and at the end of treatment (Week 14). The expression of 14,150 genes was measured. No transformation was applied to the TPM values. Values associated with a with RIN s 4.0 were discarded. The actual dose of ANAVEX 2-73 (blarcamesine) that was given to each patient during the trial was assessed and integrated into the database. To characterize the gene dysregulations, a pathway database was built using an aggregation of public databases including KEGG, Panther, Allen, Brain Atlas, Gene Ontology, and Reactome.
(§2) The genes were clustered together using WGCNA, starting from their correlation of TPM expression values across samples. Seventeen clusters with size ranging from 13 to 11,190 genes were obtained through this gene clusterisation. The TPM expression values of genes in clusters were then aggregated in a single “eigengene” for each cluster. This eigengene served as a representant of the overall dysregulation of the cluster. Secondly, a cluster filtering was performed, wherein patients' arm and dose information were taken into account based on mixed effect models. For each cluster, the eigengene was used as target variable of a linear mixed effect model with 3 covariates: ActualDose, Patient, and timepoint. For each cluster, the contrast ActualDose, i.e. treated vs placebo were evaluated across all timepoints. P-values were obtained with Dunnett's test. Regardless of the cluster and pathway, pathways with less than 4 genes in a cluster were removed, to compensate for the large variability of cluster size and corresponding variability of number of pathways identified in each clusters. The ratio between cluster size and number of pathways was calculated, and top 2 clusters were retained for further Analysis. Cluster 1 contained 213 genes (n1=213) and 37 pathways, and Cluster 2 contained 962 genes (n2=962) and 317 pathways. […] Thirdly, the two retained clusters were characterized and underwent pathway analysis. The characterization and analysis were applied to all the genes of the cluster (whole cluster), and to the genes of the clusters that are known to have biological interactions (reduced cluster). In the whole cluster analysis, overrepresented pathways were identified using EnrichR package with the parameters of Fisher's adjusted p-value p<0.05 (Benjamini-Hochberg adjustment for multiple testing) and minimum pathway size 20. In the reduced cluster analysis, genes that have no interaction with any other genes of the cluster were discarded, resulting in a reduced cluster. Pathway analysis was performed on these reduced clusters. False Discovery Rate with adjustment for multiple testing (Benjamini-Hochberg procedure) was used to characterize pathways' over-representation. Known interactions between the genes of the cluster were assessed using STRING database with the parameters of Edge score >0.150, and no text mining edges. Known interactions were obtained from public databases, such as KEGG, Panther, Allen, Brain Atlas, Gene Ontology, and Reactome.
(§3) Whole Blood Transcriptomics Analysis (RNAseq) of patients with Parkinson's disease with dementia (PDD) was performed for the ANAVEX®2-73-PDD-001 study (FIG. 1) at two timepoints: Baseline and Week 14 (end of trial). All available RNA samples with […] (RNA integrity number, using 130 samples) were analyzed. The expression of 14,150 genes at these two timepoints were analyzed from both placebo and ANAVEX® 2-73 treated patients.
(§4) The above method was performed as illustrated in FIG. 2B. […] Then, the cluster's eigengene3 (one of a set of a genes matrix that tabulates the mRNA or gene expression of the genes across the sample) was used as summary of expression level of the cluster. […]

[2] = test system: SIGMAR1; assay: SIGMAR1 levels in PDD-001 patients; assay type: in vivo, human; settings: PDD-001 study
Experimental: The trial enrolled 132 adults, ages 50-85, with PDD, and was successfully concluded in September 2020. Participants, recruited at multiple sites in Spain and Australia, were randomly assigned to one of two doses groups (with an escalating ANAVEX 2-73 dose up to 30 or 50 mg oral capsules) or to a placebo, once daily for 14 weeks (see FIG. 1 for details). The trial's main goals were to assess the therapy's safety and changes in patients' cognitive function, measured using the cognitive drug research computerized assessment system—a test that looks at multiple cognitive skills, such as choice reaction time (choosing between similar objects), vigilance, and episodic memory (remembering new personal experiences or shared information). Secondary goals included changes in patients' motor abilities—assessed with the Movement Disorders Society Unified Parkinson's Disease Rating Scale (MDS-UPDRS) Part III—and sleep quality. […] This sleep disorder is associated with greater cognitive impairment and a higher risk of dementia. […] After 14 weeks, the MDS-UPDRS total score dropped by 10.98 points (indicating an easing in disease severity) in the high-dose group and rose by 3.53 points in the placebo group. This represented an adjusted mean improvement of 14.51 points—surpassing the established, clinically meaningful 7.1 point-cut-off—and a relative improvement of 18.9% over 14 weeks. […]

[3] = test system: Cluster 1 (213 genes); assay: RNAseq whole blood transcriptomics, WGCNA Cluster 1 and pathway analysis; set-up: species or system human
Experimental: as §1, §2, §3, §4

[4] = test system: Sigma-1 receptor (SIGMAR1); settings: cited from earlier work

**Q.** Which Overlap [1] does the source give for `CN(C)CC1CCOC1(c1ccccc1)c1ccccc1.Cl` (stereo not drawn) [ANAVEX2-73, tetrahydro-N,N-dimethyl-2,2-diphenyl-3-furanmethanamine hydrochloride] here?
**A.** 45/273

**Q.** And the “Number of pathways significantly overrepresented in second cluster” value ([1]; listed as ANAVEX 2-73, hydrochloride)?
**A.** 15 pathways

**Q.** And the “Number of pathways significantly overrepresented in second cluster” value ([1]; listed as ANAVEX® 2-73, hydrochloride)?
**A.** 10 pathways

**Q.** What about the Overlap ([1]; genes of pathway in Cluster 2/genes in pathway, KEGG 2021, Alzheimer disease) of the same molecule?
**A.** 47/369

**Q.** What about the Overlap ([1]; genes of pathway in Cluster 2/genes in pathway, KEGG 2021, Amyotrophic lateral sclerosis) of the same molecule?
**A.** 46/364

**Q.** And the Overlap ([1]; genes of pathway in Cluster 2/genes in pathway, KEGG 2021, Cardiac muscle contraction)?
**A.** 11/87

**Q.** And the Overlap ([1]; genes of pathway in Cluster 2/genes in pathway, KEGG 2021, Coronavirus disease)?
**A.** 80/232

**Q.** And the Overlap ([1]; genes of pathway in Cluster 2/genes in pathway, KEGG 2021, Diabetic cardiomyopathy)?
**A.** 36/203

**Q.** What about the Overlap ([1]; genes of pathway in Cluster 2/genes in pathway, KEGG 2021, Huntington disease) of the same molecule?
**A.** 48/306

**Q.** What about the Overlap ([1]; genes of pathway in Cluster 2/genes in pathway, KEGG 2021, Non-alcoholic fatty liver disease) of the same molecule?
**A.** 34/155

**Q.** And the Overlap ([1]; genes of pathway in Cluster 2/genes in pathway, KEGG 2021, OProteasome)?
**A.** 9/46

**Q.** And the Overlap ([1]; genes of pathway in Cluster 2/genes in pathway, KEGG 2021, Oxidative phosphorylation)?
**A.** 36/133

**Q.** What about the Overlap ([1]; genes of pathway in Cluster 2/genes in pathway, KEGG 2021, Parkinson disease) of the same molecule?
**A.** 46/249

**Q.** What about the Overlap ([1]; genes of pathway in Cluster 2/genes in pathway, KEGG 2021, Pathways of neurodegeneration) of the same molecule?
**A.** 50/475

**Q.** What about the Overlap ([1]; genes of pathway in Cluster 2/genes in pathway, KEGG 2021, Retrograde endocannabinoid signaling) of the same molecule?
**A.** 24/148

**Q.** What about the Overlap ([1]; genes of pathway in Cluster 2/genes in pathway, KEGG 2021, Ribosome) of the same molecule?
**A.** 96/158

**Q.** What about the Overlap ([1]; genes of pathway in Cluster 2/genes in pathway, KEGG 2021, Thermogenesis) of the same molecule?
**A.** 45/232

**Q.** What about the Overlap ([1]; genes of term in Cluster 2/genes in term, Allen Brain Atlas, Anterior olfactory nucleus) of the same molecule?
**A.** 27/300

**Q.** What about the Overlap ([1]; genes of term in Cluster 2/genes in term, Allen Brain Atlas, Anterior olfactory nucleus, external part) of the same molecule?
**A.** 34/300

**Q.** What about the Overlap ([1]; genes of term in Cluster 2/genes in term, Allen Brain Atlas, Anterior olfactory nucleus, layer 1) of the same molecule?
**A.** 36/300

**Q.** And the Overlap ([1]; genes of term in Cluster 2/genes in term, Allen Brain Atlas, Main olfactory bulb)?
**A.** 31/300

**Q.** And the Overlap ([1]; genes of term in Cluster 2/genes in term, Allen Brain Atlas, Main olfactory bulb, glomerular layer)?
**A.** 36/300

**Q.** What about the Overlap ([1]; genes of term in Cluster 2/genes in term, Allen Brain Atlas, Main olfactory bulb, inner plexiform layer) of the same molecule?
**A.** 28/300

**Q.** And the Overlap ([1]; genes of term in Cluster 2/genes in term, Allen Brain Atlas, Main olfactory bulb, mitral layer)?
**A.** 28/300

**Q.** And the Overlap ([1]; genes of term in Cluster 2/genes in term, Allen Brain Atlas, Main olfactory bulb, outer plexiform layer)?
**A.** 30/300

**Q.** And the Overlap ([1]; genes of term in Cluster 2/genes in term, Allen Brain Atlas, OB olfactory fiber layer)?
**A.** 33/300

**Q.** And the Overlap ([1]; genes of term in Cluster 2/genes in term, Allen Brain Atlas, Olfactory areas)?
**A.** 27/300

**Q.** And the Overlap ([1]; genes of term in Cluster 2/genes in term, Allen Brain Atlas, Olfactory bulb, principal part)?
**A.** 32/300

**Q.** And the “Cluster 2 eigengene expression” value ([1]; high oral dose vs placebo)?
**A.** significantly increased

**Q.** And the “Number of brain areas significantly overrepresented in second cluster” value ([1]; n2=962 genes)?
**A.** 74 brain areas

**Q.** What about the “Number of overrepresented brain areas linked to the olfactory bulb” value ([1]; out of 74) of the same molecule?
**A.** 11 brain areas

**Q.** And the SIGMAR1 levels [2]?
**A.** significant increase

**Q.** What about the “Association of rise in SIGMAR1 levels with clinical response” value ([2]; attention measures, MDS-UPDRS total and Part III) of the same molecule?
**A.** significantly associated with improvements in attention measures, and reductions in both MDS-UPDRS total and MDS-UPDRS Part III (motor scores)

**Q.** What about the Overlap [3] of the same molecule?
**A.** 13/273

**Q.** And the “Number of pathways significantly overrepresented in first cluster” value ([3]; among its 37 pathways)?
**A.** 10 pathways

**Q.** What about the Overlap ([3]; genes of pathway in Cluster 1/genes in pathway, KEGG 2021, Alzheimer disease) of the same molecule?
**A.** 15/369

**Q.** And the Overlap ([3]; genes of pathway in Cluster 1/genes in pathway, KEGG 2021, Amyotrophic lateral sclerosis)?
**A.** 14/364

**Q.** And the Overlap ([3]; genes of pathway in Cluster 1/genes in pathway, KEGG 2021, Diabetic cardiomyopathy)?
**A.** 9/203

**Q.** What about the Overlap ([3]; genes of pathway in Cluster 1/genes in pathway, KEGG 2021, Huntington disease) of the same molecule?
**A.** 13/306

**Q.** What about the Overlap ([3]; genes of pathway in Cluster 1/genes in pathway, KEGG 2021, Non-alcoholic fatty liver disease) of the same molecule?
**A.** 8/155

**Q.** And the Overlap ([3]; genes of pathway in Cluster 1/genes in pathway, KEGG 2021, Oxidative phosphorylation)?
**A.** 8/133

**Q.** What about the Overlap ([3]; genes of pathway in Cluster 1/genes in pathway, KEGG 2021, Parkinson disease) of the same molecule?
**A.** 12/249

**Q.** And the Overlap ([3]; genes of pathway in Cluster 1/genes in pathway, KEGG 2021, Pathways of neurodegeneration)?
**A.** 15/475

**Q.** What about the Overlap ([3]; genes of pathway in Cluster 1/genes in pathway, KEGG 2021, Proteasome) of the same molecule?
**A.** 4/46

**Q.** What about the “Sigma-1 receptor (SIGMAR1) activity” value [4] of the same molecule?
**A.** agonist
